How the values were obtained:
Type in all cases: physicochemical
[1] = Loading of films with geraniol; conditions: lactic acid-triggered films, 7 mm discs
Experimental: Loading of films with and Active Agent. The active agent geraniol was used for release studies. Once dry, 7 mm discs were carefully cut out using a standard stainless steel cork borer. The discs were lifted out and placed on a clean dish. For the loading, 100 mg of geraniol was weighed out and dissolved in 100 ml of 50% ethanol:distilled water, resulting in a final concentration of 1.0 mg/ml. The mixture was vigorously mixed and sonicated for 5 minutes. In the meantime discs were arranged in a segmented plastic container and the geraniol solution gently pipetted onto the discs until they were fully covered. The container was tightly covered and left at room temperature overnight. The following day the geraniol solution was gently removed by pipette until the discs were visible. The discs were washed three times with water and placed on a clean foil and left to dry overnight.

[2] = Release of geraniol from MIP polymers in lactic acid solutions; conditions: 200 mg/dl lactic acid, 24 hours; FIG. 8
Experimental: Loading of films with and Active Agent. The active agent geraniol was used for release studies. Once dry, 7 mm discs were carefully cut out using a standard stainless steel cork borer. The discs were lifted out and placed on a clean dish. For the loading, 100 mg of geraniol was weighed out and dissolved in 100 ml of 50% ethanol:distilled water, resulting in a final concentration of 1.0 mg/ml.
The mixture was vigorously mixed and sonicated for 5 minutes. In the meantime discs were arranged in a segmented plastic container and the geraniol solution gently pipetted onto the discs until they were fully covered. The container was tightly covered and left at room temperature overnight. The following day the geraniol solution was gently removed by pipette until the discs were visible. The discs were washed three times with water and placed on a clean foil and left to dry overnight.
Preparation of lactic acid solutions. […]
Incubation Study—Geraniol. […] The stop clock started and samples were taken (100 ul) into HPLC autosampler vials and the concentration of geraniol present was determined by injecting onto a C18 HPLC column and monitoring at a wavelength of 195 nm.
Assay for Geraniol. Geraniol concentration was quantified using an HPLC Diode array detector (DAD) at 195 nm. After blanking with water, samples were injected and the peak area of the geraniol peak recorded. […]

[3] = Release of Nile Blue from MIP polymers in glucose solutions
Experimental: Loading of Films with Nile Blue For Release Studies. For dye loading, 50 mg of Nile Blue was weighed out and dissolved in 100 ml of distilled water, resulting in a final concentration of 0.5 mg/ml. The mixture was vigorously mixed and sonicated for 5 minutes. In the meantime discs were arranged in a segmented plastic container and the Nile Blue solution gently pipetted onto the discs until they were fully covered. The container was covered and left at room temperature overnight.
The following day the Nile Blue was gently removed by pipettes until the discs were visible. The discs were carefully removed and washed three times with water and then placed in a clean container and covered in water. The container was then placed on a hot plate set to 55° C. and left for three hours. The water was removed and the process repeated. At the end of six hours the discs were removed and placed on a clean foil and dried overnight at room temperature. The following day the discs were ready for study.
Preparation of glucose solutions. Glucose (200 mg) was weighed out and dissolved in 100 ml of water, resulting in a final concentration of 200 mg/dl.
Incubation—Nile Blue. The above solutions of glucose or lactic acid were used as triggers for Nile Blue release. 4 ml of each solution was placed into three petri dishes kept at room temperature. Stained discs were placed into each dish and the dish covered. Samples were taken (400 ul) into micro-cuvettes at specific time points and the concentration of Nile Blue present was determined by measuring the absorbance of the Nile Blue solutions at 625 nm.

Compound | loading of geraniol in MIP films [1] | release of geraniol from MIP films [2] [%] | release of Nile Blue from MIP films ([3]; films moved at 365 minutes from water to 200 mg/dl glucose, FIG. 5) | release of Nile Blue from MIP films ([3]; films moved at 450 minutes from glucose solution to fresh water, FIG. 6) | release of Nile Blue from MIP films ([3]; in water, about 5 hours) | release of Nile Blue from MIP films ([3]; increasing glucose concentration, FIG. 4)
CC(C)=CCC/C(C)=C/CO [Geraniol] | approximately 145 μg per disc | ~100 | – | – | – | –
CC[N+](CC)=c1ccc2nc3c(cc(N)c4ccccc43)oc-2c1 [Nile Blue] | – | – | began almost immediately | stopped almost immediately | not showed any significant release | released in increasing amounts
